In US11000033B2, “Ketone or oxime compound, and herbicide” (NISSAN CHEMICAL CORPORATION, priority 2014, dated 2021):

Experiments:
Assay type in all cases: in vivo
[1] = test system: Avena fatua; assay: Test Example 4: herbicidal effect by soil treatment (symbol I); conditions: application herbicide amount 320 g/ha
Summary of the method: (§1)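 Seeds were sown in sterilized diluvial soil, covered with about 1.5 cm of soil, and the soil surface was sprayed with a water-diluted emulsion of the compound at a predetermined rate. Plants grew in a greenhouse at 25° C. to 30° C.; effects were scored visually 3 weeks after application.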

[2] = test system: Stellaria media; assay: Test Example 4: herbicidal effect by soil treatment (symbol P); conditions: application herbicide amount 320 g/ha
Summary of the method: as §1

[3] = test system: Abutilon theophrasti; assay: Test Example 5: herbicidal effect by foliage application, plastic box (symbol M); conditions: 320 g/ha, 3 weeks after application
Summary of the method: (§2)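 Effect is rated 3 weeks after a foliar spray of water-diluted emulsion concentrate at a predetermined herbicide amount. Plants had grown 14 days in a 25° C. to 30° C. greenhouse from seed in sterilized diluvial soil.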

[4] = test system: Alopecurus myosuroides; assay: Test Example 4: herbicidal effect by soil treatment (symbol J); conditions: application herbicide amount 320 g/ha
Summary of the method: as §1

[5] = test system: Setaria viridis; assay: Test Example 4: herbicidal effect by soil treatment (symbol G); conditions: application herbicide amount 320 g/ha
Summary of the method: as §1

[6] = test system: Apera spica-venti; assay: Test Example 4: herbicidal effect by soil treatment (symbol L); conditions: application herbicide amount 320 g/ha
Summary of the method: as §1

[7] = test system: corn; assay: Test Example 5: effect on crop by foliage application, plastic box (symbol c); conditions: 320 g/ha, 3 weeks after application
Summary of the method: (§3)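 Crop and weed seeds sown in spots in sterilized diluvial soil in plastic boxes and covered with about 1.5 cm soil. Plants raised in a greenhouse at 25° C. to 30° C. for foliar application.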

[8] = test system: Veronica persica; assay: Test Example 4: herbicidal effect by soil treatment (symbol R); conditions: application herbicide amount 320 g/ha
Summary of the method: as §1

[9] = test system: Stellaria media; assay: Test Example 5: herbicidal effect by foliage application, plastic box (symbol P); conditions: 320 g/ha, 3 weeks after application
Summary of the method: as §2

[10] = test system: rapeseed; assay: Test Example 5: effect on crop by foliage application, plastic box (symbol g); conditions: 320 g/ha, 3 weeks after application
Summary of the method: as §3

[11] = test system: Lolium multiflorum Lam.; assay: Test Example 5: herbicidal effect by foliage application, plastic box (symbol K); conditions: 320 g/ha, 3 weeks after application
Summary of the method: as §2

[12] = test system: Monochoria vaginalis; assay: Test Example 1: herbicidal activity, application before weed generation in submerged conditions (symbol C); conditions: application herbicide amount 320 g/ha
Summary of the method: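 0–5 visual score, 3 wk post-application. Submerged pots, alluvial soil, water 4 cm; seeds sown mixed, rice at 2.5 leaves transplanted. Emulsion diluted to predetermined dose, applied to water surface at sowing. 25–30 °C greenhouse.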

[13] = test system: transplanted rice plant; assay: Test Example 1: effect on crop, application before weed generation in submerged conditions (symbol a); conditions: application herbicide amount 320 g/ha
Summary of the method: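 Alluvial soil pots flooded to 4 cm water, sown with Echinochloa oryzacola, Scirpus juncoides and Monochoria vaginalis, then transplanted with 2.5 leaf stage rice seedlings; pre-emergence application. Greenhouse 25° C. to 30° C.; scored 0–5 by herbicidal ratio 3 weeks after application.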

[14] = test system: Amaranthus retroflexus; assay: Test Example 5: herbicidal effect by foliage application, plastic box (symbol N); conditions: 320 g/ha, 3 weeks after application
Summary of the method: as §2

[15] = test system: Echinochloa crus-galli var. crus-galli; assay: Test Example 5: herbicidal effect by foliage application, plastic box (symbol H); conditions: 320 g/ha, 3 weeks after application
Summary of the method: as §2

[16] = test system: Chenopodium album; assay: Test Example 5: herbicidal effect by foliage application, plastic box (symbol O); conditions: 320 g/ha, 3 weeks after application
Summary of the method: as §2

[17] = test system: Leptochloa chinensis; assay: Test Example 3: herbicidal effect by foliage application, Wagner pot (symbol D); conditions: application herbicide amount 320 g/ha
Summary of the method: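 Plants sown in submerged alluvial soil (water depth 0.1–0.5 cm) in a 25–30 °C greenhouse and grown 14 days. An emulsion of the compound diluted in water to a set herbicide amount was sprayed uniformly on foliage. Effect on each plant scored 3 weeks after application.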

Compound	I (Avena fatua) herbicidal effect grade [1]	P (Stellaria media) herbicidal effect grade [2]	M: Abutilon theophrasti, herbicidal effect grade [3]	J (Alopecurus myosuroides) herbicidal effect grade [4]	G (Setaria viridis) herbicidal effect grade [5]	L (Apera spica-venti) herbicidal effect grade [6]	c: corn, effect on crop grade [7]	R (Veronica persica) herbicidal effect grade [8]	P: Stellaria media, herbicidal effect grade [9]	g: rapeseed, effect on crop grade [10]	K: Lolium multiflorum Lam., herbicidal effect grade [11]	Herbicidal effect grade, C: Monochoria vaginalis [12]	Effect grade on crop, a: transplanted rice plant [13]	N: Amaranthus retroflexus, herbicidal effect grade [14]	H: Echinochloa crus-galli var. crus-galli, herbicidal effect grade [15]	O: Chenopodium album, herbicidal effect grade [16]	herbicidal effect on D (Leptochloa chinensis), grade 0-5 [17]	also measured
COCCON=C(C)CC1CC(O)=C(c2c(C)cc(C)cc2C)C1=O (centres unmarked) [1-041]	5 (Herbicidal ratio of 90% or more (almost completely withered))	0 (Herbicidal ratio of 5% or lower (almost no effect))	4 (Herbicidal ratio of 70% or higher and lower than 90%)	5 (Herbicidal ratio of 90% or more (almost completely withered))	5 (Herbicidal ratio of 90% or more (almost completely withered))	5 (Herbicidal ratio of 90% or more (almost completely withered))	5 (Herbicidal ratio of 90% or more (almost completely withered))	3 (Herbicidal ratio of 40% or higher and lower than 70%)	3 (Herbicidal ratio of 40% or higher and lower than 70%)	4 (Herbicidal ratio of 70% or higher and lower than 90%)	5 (Herbicidal ratio of 90% or more (almost completely withered))	0 (Herbicidal ratio of 5% or lower (almost no effect))	5 (Herbicidal ratio of 90% or more (almost completely withered))	3 (Herbicidal ratio of 40% or higher and lower than 70%)	5 (Herbicidal ratio of 90% or more (almost completely withered))	3 (Herbicidal ratio of 40% or higher and lower than 70%)	5 (Herbicidal ratio of 90% or more (almost completely withered))	
CON=C(CC1CC(O)=C(c2c(C)cc(Br)cc2C)C1=O)C(C)C (centres unmarked) [9-001]			0 (Herbicidal ratio of 5% or lower (almost no effect))				4 (Herbicidal ratio of 70% or higher and lower than 90%)		0 (Herbicidal ratio of 5% or lower (almost no effect))	2 (Herbicidal ratio of 20% or higher and lower than 40%)	5 (Herbicidal ratio of 90% or more (almost completely withered))	0 (Herbicidal ratio of 5% or lower (almost no effect))	4 (Herbicidal ratio of 70% or higher and lower than 90%)	0 (Herbicidal ratio of 5% or lower (almost no effect))	5 (Herbicidal ratio of 90% or more (almost completely withered))	0 (Herbicidal ratio of 5% or lower (almost no effect))		Herbicidal effect grade, I: Avena fatua [1]: 0 (Herbicidal ratio of 5% or lower (almost no effect)); Herbicidal effect grade, P: Stellaria media [2]: 0 (Herbicidal ratio of 5% or lower (almost no effect)); Herbicidal effect grade, J: Alopecurus myosuroides [4]: 3 (Herbicidal ratio of 40% or higher and lower than 70%); Herbicidal effect grade, G: Setaria viridis [5]: 4 (Herbicidal ratio of 70% or higher and lower than 90%); Herbicidal effect grade, L: Apera spica-venti [6]: 4 (Herbicidal ratio of 70% or higher and lower than 90%); Herbicidal effect grade, R: Veronica persica [8]: 0 (Herbicidal ratio of 5% or lower (almost no effect)); D (Leptochloa chinensis) herbicidal effect grade ([17]; Table 24): 4 (Herbicidal ratio of 70% or higher and lower than 90%)
CON=C(C)CC1CC(OC(=O)C(C)(C)Oc2cccc(Cl)c2)=C(c2c(C)cc(C)cc2C)C1=O (centres unmarked) [1-065]	3 (Herbicidal ratio of 40% or higher and lower than 70%)	0 (Herbicidal ratio of 5% or lower (almost no effect))	4 (Herbicidal ratio of 70% or higher and lower than 90%)	5 (Herbicidal ratio of 90% or more (almost completely withered))	5 (Herbicidal ratio of 90% or more (almost completely withered))	5 (Herbicidal ratio of 90% or more (almost completely withered))	5 (Herbicidal ratio of 90% or more (almost completely withered))	0 (Herbicidal ratio of 5% or lower (almost no effect))	0 (Herbicidal ratio of 5% or lower (almost no effect))	4 (Herbicidal ratio of 70% or higher and lower than 90%)	5 (Herbicidal ratio of 90% or more (almost completely withered))	0 (Herbicidal ratio of 5% or lower (almost no effect))	5 (Herbicidal ratio of 90% or more (almost completely withered))	2 (Herbicidal ratio of 20% or higher and lower than 40%)	5 (Herbicidal ratio of 90% or more (almost completely withered))	2 (Herbicidal ratio of 20% or higher and lower than 40%)	5 (Herbicidal ratio of 90% or more (almost completely withered))	
CC(CC1CC(O)=C(c2c(C)cc(C)cc2C)C1=O)=NOCC=CCl (centres unmarked) [1-056]	3 (Herbicidal ratio of 40% or higher and lower than 70%)	0 (Herbicidal ratio of 5% or lower (almost no effect))	4 (Herbicidal ratio of 70% or higher and lower than 90%)	5 (Herbicidal ratio of 90% or more (almost completely withered))	5 (Herbicidal ratio of 90% or more (almost completely withered))	5 (Herbicidal ratio of 90% or more (almost completely withered))	4 (Herbicidal ratio of 70% or higher and lower than 90%)	0 (Herbicidal ratio of 5% or lower (almost no effect))	0 (Herbicidal ratio of 5% or lower (almost no effect))	4 (Herbicidal ratio of 70% or higher and lower than 90%)	5 (Herbicidal ratio of 90% or more (almost completely withered))	4 (Herbicidal ratio of 70% or higher and lower than 90%)	5 (Herbicidal ratio of 90% or more (almost completely withered))	2 (Herbicidal ratio of 20% or higher and lower than 40%)	5 (Herbicidal ratio of 90% or more (almost completely withered))	1 (Herbicidal ratio of 5% or higher and lower than 20%)	5 (Herbicidal ratio of 90% or more (almost completely withered))	
